Results reported in paper PMC11062899, “De novo development of small cyclic peptides that are orally bioavailable” (Nature Chemical Biology, 2023).
Values joined by “and” are separate entries in the source; they are usually repeats but may differ in a detail not shown here. Equal values may be shown once.

Assays:
[1] = Metabolic stability in rat liver microsomes (RLMs); conditions: rat, microsomes
[2] = target: T1, porcine pepsin (Sus scrofa, UniProt P00791); test: Peptide stability in simulated gastric fluid (SGF); assay type: in vitro ADME; conditions: for SGF stability, Residual peptide Average / SGF stability, Residual peptide: after 8 h vs 0 h (TIC); for SGF stability, Residual peptide Average: average of R1-R3; for SGF stability, Residual peptide: single replicates R1-R3; for remaining at 8 h: simulated gi fluid, 37 °C, pH 1.2, read-out: Proteolytic stability: SGF (8 h) % remaining
T1 construct: 0.32 g of porcine pepsin (Sigma-Aldrich, P7125) was dissolved under gentle agitation; purchased Sigma-Aldrich P7125
Summary of the method: (§1)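 Peptide from a 1 mM DMSO stock was added to fluid pre-warmed at 37 °C. SGF was pH 1.2 NaCl with porcine pepsin (0.32 g per 100 ml), and SIF was pH 6.8 potassium phosphate with porcine pancreatin (1 g per 100 ml). Supernatant peptide was quantified by LC–MS, with residual expressed as T1/T0.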

[3] = target: T2, rat α-thrombin (Rattus norvegicus, UniProt P18292); test: Protease inhibition, Ki for rat α-thrombin (fluorogenic substrate Z-Gly-Gly-Arg-AMC); assay type: biochemical; conditions: replicates R1-R3
T2 construct: rat α-thrombin (Molecular Innovations) were used at final concentrations of 2 nM and 3 nM; purchased Molecular Innovations
Summary of the method: (§2)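 Ki derived through Cheng–Prusoff from IC50s (four-parameter logistic fit) against activity of peptide-free controls. Product fluorescence was read every 3 min over 30 min at 25 °C, substrate Z-Gly-Gly-Arg-AMC at 50 μM. Enzyme was 2 nM human or 3 nM rat α-thrombin, pH 7.4 buffer.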

[4] = system: porcine pancreatin; test: Peptide stability in simulated intestinal fluid (SIF); assay type: in vitro ADME; conditions: after 8 h vs 0 h (TIC); for SIF stability, Residual peptide Average: average of R1-R3
Summary of the method: as §1

[5] = as above; assay type: in vitro ADME, porcine; conditions: simulated gi fluid; 8 h, 37 °C, pH 6.8; read-out: Proteolytic stability: SIF (8 h) % remaining
Summary of the method: as §1

[6] = Passive artificial membrane permeability (PAMPA); conditions: for PAMPA permeability: % permeability: 50 μM, 12–18 h, acceptor concentration relative to equilibrium; for Papp at 50 μM / Permeability% Average / Permeability% R1 / Permeability% R3: PAMPA; for Papp at 50 μM: pH 7.4; for Permeability% Average: average of R1-R3; for Permeability% R1: replicate R1; for Permeability% R1 / Permeability% R3: TIC of top well sample relative to sample at theoretical equilibrium; for Permeability% R3: replicate R3
[7] = target: human α-thrombin (Homo sapiens, UniProt P00734); test: Protease inhibition, Ki for human α-thrombin (fluorogenic substrate Z-Gly-Gly-Arg-AMC); assay type: biochemical; conditions: replicates R1-R3
Summary of the method: as §2

[8] = CL (ul/min/mg protein) R1, RLM CL, replicate R1
[9] = CL (ul/min/mg protein) R2, RLM CL, replicate R2
[10] = CL (ul/min/mg protein) R3, RLM CL, replicate R3
[11] = Half Life (min) R1, RLM metabolic stability, replicate R1, 0-60 min
[12] = Half Life (min) R2, RLM metabolic stability, replicate R2, 0-60 min
[13] = Half Life (min) R3, RLM metabolic stability, replicate R3, 0-60 min
[14] = Metabolic stability: Half life T1/2 (min), RLMs, mean and SD, three measurements
[15] = Metabolic stability: RLM CL (ul/min/mg), RLMs, mean and SD, three measurements
[16] = peptide 1.33E+02 uM, slope of proteolytic substrate cleavage over time

T1 sequence (P00791 60-385): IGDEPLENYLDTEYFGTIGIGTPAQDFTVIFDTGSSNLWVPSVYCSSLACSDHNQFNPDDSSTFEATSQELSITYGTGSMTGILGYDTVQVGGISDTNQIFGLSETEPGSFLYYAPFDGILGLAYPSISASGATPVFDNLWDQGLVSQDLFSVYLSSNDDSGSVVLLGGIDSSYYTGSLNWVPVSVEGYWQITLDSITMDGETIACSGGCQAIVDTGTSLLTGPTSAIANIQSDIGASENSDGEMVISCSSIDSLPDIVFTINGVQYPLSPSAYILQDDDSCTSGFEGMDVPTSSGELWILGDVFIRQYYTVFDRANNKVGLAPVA

SMILES: O=C1CCSCc2cccc(n2)CSCCNC(=O)[C@H](CO)NC(=O)[C@@H](NC(=O)c2ccc(Cl)s2)CN1 [compound 17]
- microsomal CLint [1, 8]: 149 µL/min/mg
- microsomal CLint [1, 9]: 98.2 µL/min/mg
- microsomal CLint [1, 10]: 109 µL/min/mg
- half-life [1, 11]: 9.3 min
- half-life [1, 12]: 14.1 min
- half-life [1, 13]: 12.7 min
- half-life [1, 14]: 12.1 ± 2 min
- microsomal CLint [1, 15]: 119 ± 22 µL/min/mg
- SGF stability, Residual peptide Average [2]: 97.83
- SGF stability, Residual peptide [2]: 97.70 and 100.05 and 95.74
- remaining at 8 h [2]: 98 ± 2%
- Rat alpha thrombin inhibition, slope normalized to DMSO [3, 16]: 11.3 and 13.8 and 8.3
- Rat alpha thrombin inhibition, slope normalized to DMSO ([3]; peptide 1.67E+01 uM): 29.0 and 30.7 and 41.4
- Rat alpha thrombin inhibition, slope normalized to DMSO ([3]; peptide 2.08E+00 uM): 79.8 and 81.7 and 85.5
- Rat alpha thrombin inhibition, slope normalized to DMSO ([3]; peptide 3.33E+01 uM): 17.9 and 19.2 and 22.6
- Rat alpha thrombin inhibition, slope normalized to DMSO ([3]; peptide 4.17E+00 uM): 59.7 and 62.6 and 71.9
- Rat alpha thrombin inhibition, slope normalized to DMSO ([3]; peptide 6.67E+01 uM): 10.8 and 11.8 and 26.2
- Rat alpha thrombin inhibition, slope normalized to DMSO ([3]; peptide 8.33E+00 uM): 44.9 and 46.7 and 59.3
- SIF stability, Residual peptide Average [4]: 91.77
- SIF stability, Residual peptide ([4]; single replicates R1-R3): 101.93 and 87.06 and 86.31
- remaining at 8 h [5]: 92 ± 9%
- PAMPA permeability: % permeability [6]: 0.86 ± 0.09%
- Papp at 50 μM [6]: 0.0575 ×10⁻⁶ cm/s
- Permeability% Average [6]: 0.9%
- Permeability% R1 [6]: 0.87%
- Permeability% R3 [6]: 0.95%
- Human alpha thrombin inhibition, slope normalized to DMSO ([7]; peptide 1.02E-03 uM): 90.3 and 94.2 and 97.4
- Human alpha thrombin inhibition, slope normalized to DMSO ([7]; peptide 1.04E+00 uM): 86.6 and 86.7 and 88.9
- Human alpha thrombin inhibition, slope normalized to DMSO ([7]; peptide 1.27E-04 uM): 98.6 and 95.2 and 97.6
- Human alpha thrombin inhibition, slope normalized to DMSO ([7]; peptide 1.30E-01 uM): 95.9 and 91.0 and 95.3
- Human alpha thrombin inhibition, slope normalized to DMSO [7, 16]: 25.3 and 29.1 and 30.1
- Human alpha thrombin inhibition, slope normalized to DMSO ([7]; peptide 1.63E-02 uM): 109.1 and 94.1 and 96.6
- Human alpha thrombin inhibition, slope normalized to DMSO ([7]; peptide 1.67E+01 uM): 56.0 and 55.9 and 56.8
- Human alpha thrombin inhibition, slope normalized to DMSO ([7]; peptide 2.03E-03 uM): 98.0 and 93.9 and 96.6
- Human alpha thrombin inhibition, slope normalized to DMSO ([7]; peptide 2.08E+00 uM): 93.5 and 81.6 and 87.4
- Human alpha thrombin inhibition, slope normalized to DMSO ([7]; peptide 2.54E-04 uM): 96.9 and 93.2 and 95.5
- Human alpha thrombin inhibition, slope normalized to DMSO ([7]; peptide 2.60E-01 uM): 93.6 and 91.3 and 95.4
- Human alpha thrombin inhibition, slope normalized to DMSO ([7]; peptide 3.18E-05 uM): 97.0 and 94.8 and 95.7
- Human alpha thrombin inhibition, slope normalized to DMSO ([7]; peptide 3.26E-02 uM): 97.9 and 92.8 and 96.6
- Human alpha thrombin inhibition, slope normalized to DMSO ([7]; peptide 3.33E+01 uM): 44.0 and 43.7 and 42.6
- Human alpha thrombin inhibition, slope normalized to DMSO ([7]; peptide 4.07E-03 uM): 98.5 and 94.3 and 98.3
- Human alpha thrombin inhibition, slope normalized to DMSO ([7]; peptide 4.17E+00 uM): 81.7 and 78.5 and 82.6
- Human alpha thrombin inhibition, slope normalized to DMSO ([7]; peptide 5.09E-04 uM): 98.7 and 85.0 and 98.3
- Human alpha thrombin inhibition, slope normalized to DMSO ([7]; peptide 5.21E-01 uM): 102.0 and 91.0 and 92.1
- Human alpha thrombin inhibition, slope normalized to DMSO ([7]; peptide 6.36E-05 uM): 94.5 and 96.0 and 100.7
- Human alpha thrombin inhibition, slope normalized to DMSO ([7]; peptide 6.51E-02 uM): 96.7 and 92.1 and 95.5
- Human alpha thrombin inhibition, slope normalized to DMSO ([7]; peptide 6.67E+01 uM): 31.6 and 30.0 and 31.3
- Human alpha thrombin inhibition, slope normalized to DMSO ([7]; peptide 8.14E-03 uM): 98.1 and 93.7 and 96.2
- Human alpha thrombin inhibition, slope normalized to DMSO ([7]; peptide 8.33E+00 uM): 74.6 and 70.2 and 71.4

SMILES: O=C1CC2CCN(CC2)C(=O)[C@H](Cc2ccccc2)NC(=O)[C@@H](NC(=O)c2ccc(Cl)s2)CSCc2cccc(n2)CSCCN1 [compound 15]
- microsomal CLint [1, 8]: 87.8 µL/min/mg
- microsomal CLint [1, 9]: 76.3 µL/min/mg
- microsomal CLint [1, 10]: 81.9 µL/min/mg
- half-life [1, 11]: 15.8 min
- half-life [1, 12]: 18.2 min
- half-life [1, 13]: 16.9 min
- half-life [1, 14]: 17 ± 1 min
- microsomal CLint [1, 15]: 82 ± 5 µL/min/mg
- SGF stability, Residual peptide Average [2]: 98.62
- SGF stability, Residual peptide [2]: 100.84 and 98.47 and 96.53
- remaining at 8 h [2]: 99 ± 2%
- Rat alpha thrombin inhibition, slope normalized to DMSO [3, 16]: 1.8 and 3.0 and 9.6
- Rat alpha thrombin inhibition, slope normalized to DMSO ([3]; peptide 1.67E+01 uM): 7.1 and 6.4 and 13.3
- Rat alpha thrombin inhibition, slope normalized to DMSO ([3]; peptide 2.08E+00 uM): 34.4 and 33.4 and 32.9
- Rat alpha thrombin inhibition, slope normalized to DMSO ([3]; peptide 3.33E+01 uM): 4.1 (2×) and 10.8
- Rat alpha thrombin inhibition, slope normalized to DMSO ([3]; peptide 4.17E+00 uM): 21.9 and 19.6 and 23.7
- Rat alpha thrombin inhibition, slope normalized to DMSO ([3]; peptide 6.67E+01 uM): 2.7 and 2.8 and 9.5
- Rat alpha thrombin inhibition, slope normalized to DMSO ([3]; peptide 8.33E+00 uM): 12.5 and 11.7 and 18.6
- SIF stability, Residual peptide Average [4]: 87.61
- remaining at 8 h [5]: 88 ± 18%
- PAMPA permeability: % permeability [6]: 20 ± 10%
- Papp at 50 μM [6]: 1.35 ×10⁻⁶ cm/s
- Permeability% Average [6]: 20.3%
- Permeability% R1 [6]: 29.62%
- Permeability% R3 [6]: 22.19%
- Human alpha thrombin inhibition, slope normalized to DMSO ([7]; peptide 1.02E-03 uM): 100.6 and 98.3 and 99.0
- Human alpha thrombin inhibition, slope normalized to DMSO ([7]; peptide 1.04E+00 uM): 68.1 and 68.7 and 68.9
- Human alpha thrombin inhibition, slope normalized to DMSO ([7]; peptide 1.27E-04 uM): 101.1 and 97.6 and 104.9
- Human alpha thrombin inhibition, slope normalized to DMSO ([7]; peptide 1.30E-01 uM): 90.7 and 100.7 and 97.5
- Human alpha thrombin inhibition, slope normalized to DMSO [7, 16]: 4.8 and 5.5 and 1.6
- Human alpha thrombin inhibition, slope normalized to DMSO ([7]; peptide 1.63E-02 uM): 110.6 and 96.8 and 100.1
- Human alpha thrombin inhibition, slope normalized to DMSO ([7]; peptide 1.67E+01 uM): 12.1 and 12.4 and 14.6
- Human alpha thrombin inhibition, slope normalized to DMSO ([7]; peptide 2.03E-03 uM): 101.2 and 99.3 and 100.0
- Human alpha thrombin inhibition, slope normalized to DMSO ([7]; peptide 2.08E+00 uM): 65.0 and 52.9 and 51.5
- Human alpha thrombin inhibition, slope normalized to DMSO ([7]; peptide 2.54E-04 uM): 99.3 and 97.7 and 101.2
- Human alpha thrombin inhibition, slope normalized to DMSO ([7]; peptide 2.60E-01 uM): 95.0 and 89.4 and 94.7
- Human alpha thrombin inhibition, slope normalized to DMSO ([7]; peptide 3.18E-05 uM): 97.8 and 94.7 and 100.8
- Human alpha thrombin inhibition, slope normalized to DMSO ([7]; peptide 3.26E-02 uM): 94.1 and 101.2 and 106.3
- Human alpha thrombin inhibition, slope normalized to DMSO ([7]; peptide 3.33E+01 uM): 8.2 and 10.1 and 12.2
- Human alpha thrombin inhibition, slope normalized to DMSO ([7]; peptide 4.07E-03 uM): 102.2 and 130.5 and 101.9
- Human alpha thrombin inhibition, slope normalized to DMSO ([7]; peptide 4.17E+00 uM): 34.4 and 33.3 and 35.3
- Human alpha thrombin inhibition, slope normalized to DMSO ([7]; peptide 5.09E-04 uM): 99.7 and 107.7 and 101.3
- Human alpha thrombin inhibition, slope normalized to DMSO ([7]; peptide 5.21E-01 uM): 82.1 and 87.9 and 83.3
- Human alpha thrombin inhibition, slope normalized to DMSO ([7]; peptide 6.36E-05 uM): 100.1 and 97.7 and 104.2
- Human alpha thrombin inhibition, slope normalized to DMSO ([7]; peptide 6.51E-02 uM): 100.7 and 90.2 and 100.6
- Human alpha thrombin inhibition, slope normalized to DMSO ([7]; peptide 6.67E+01 uM): 5.7 and 5.6 and 9.1
- Human alpha thrombin inhibition, slope normalized to DMSO ([7]; peptide 8.14E-03 uM): 98.8 and 99.9 and 103.6
- Human alpha thrombin inhibition, slope normalized to DMSO ([7]; peptide 8.33E+00 uM): 23.8 and 18.1 and 21.3
